Among the test systems are SN12C renal; HCT-15 colon; OVCAR-5 ovarian; A549 NSCLC; 786-0 renal; HOP-92 NSCLC; HL-60(TB) leukemia; SK-OV-3 ovarian.
What all share (test): NCI-60 cell line screen, 48 h

The structures appear in SMILES notation.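 Briefly, cells in 96-well plates were exposed to five compound concentrations for 48 h, and endpoints were estimated by linear interpolation. GI50 is the concentration that inhibits growth by half. TGI: total growth inhibition.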

Regarding `CC(C)(C)CC(C)(C)c1cc2c(O)c(c1)Cc1cc(C(C)(C)CC(C)(C)C)cc(c1O)Cc1cc(C(C)(C)CC(C)(C)C)cc(c1O)Cc1cc(C(C)(C)CC(C)(C)C)cc(c1O)Cc1cc(C(C)(C)CC(C)(C)C)cc(c1O)Cc1cc(C(C)(C)CC(C)(C)C)cc(c1O)Cc1cc(C(C)(C)CC(C)(C)C)cc(c1O)Cc1cc(C(C)(C)CC(C)(C)C)cc(c1O)C2`, the TGI in the test on SN12C renal, in the test on HCT-15 colon, in the test with OVCAR-5 ovarian, in the test with A549 NSCLC, in the test with 786-0 renal and with HOP-92 NSCLC was > 100 µM in each case. For the same molecule, the TGI with HL-60(TB) leukemia is > 100 µM.

`CCCCCCCCCCCc1cc(=O)c2c(O)cccc2o1`: the TGI in the test on SN12C renal, in the test with HCT-15 colon, with OVCAR-5 ovarian, in the test with A549 NSCLC, in the test with 786-0 renal and in the test with SK-OV-3 ovarian was > 100 µM in each case. Moreover, the TGI in the test on HOP-92 NSCLC and in the test on HL-60(TB) leukemia was > 100 µM in each case.

Consider `CC1=CC[C@@H]2C(=O)C=CC=C[C@H]12.[C-]#[O+].[C-]#[O+].[C-]#[O+].[Fe]`, for which the GI50 in the test on SN12C renal, with HCT-15 colon, in the test with OVCAR-5 ovarian, in the test with A549 NSCLC, with 786-0 renal and with SK-OV-3 ovarian was > 100 µM throughout. The GI50 with HL-60(TB) leukemia is > 100 µM. Besides, the TGI in the test on SN12C renal, in the test on HCT-15 colon, in the test with OVCAR-5 ovarian, with A549 NSCLC, in the test on 786-0 renal and with SK-OV-3 ovarian was > 100 µM each time. The TGI in the test with HL-60(TB) leukemia was > 100 µM.

In the case of `COc1cc2ccnc(-c3n[nH]c4cc(OC)c(OC)cc34)c2cc1OC`, the TGI in the test on SN12C renal, in the test on HCT-15 colon, with OVCAR-5 ovarian, with A549 NSCLC, in the test with 786-0 renal and in the test with SK-OV-3 ovarian was > 100 µM each time. In addition, the TGI in the test on HOP-92 NSCLC and in the test with HL-60(TB) leukemia was > 100 µM in each case.

On to `O=C(/C=C/c1ccco1)N1CCN(Cc2ccccc2)CC1`, for which the TGI with SN12C renal, in the test on HCT-15 colon, with OVCAR-5 ovarian, in the test on A549 NSCLC, in the test with 786-0 renal and with SK-OV-3 ovarian was > 100 µM each time. The TGI in the test on HOP-92 NSCLC and in the test on HL-60(TB) leukemia was > 100 µM throughout.

`COC(=O)c1ccc(N/C=C(/C#N)c2ccsc2)cc1`: the TGI with HCT-15 colon is > 100 µM; in the test on OVCAR-5 ovarian, > 100 µM; with A549 NSCLC, 40.3 µM; with 786-0 renal it was 23.3 µM; in the test on HL-60(TB) leukemia, > 100 µM.

`COc1ccccc1NC(=O)C1=C(C)NC(C)=C(C(=O)Nc2ccccc2OC)C1c1ccc(C2C(C(=O)Nc3ccccc3OC)=C(C)NC(C)=C2C(=O)Nc2ccccc2OC)cc1`: the TGI with SN12C renal is 3.69 µM; in the test on HCT-15 colon it was 7.49 µM; in the test with OVCAR-5 ovarian, 10.7 µM; in the test on A549 NSCLC it was > 60.4 µM; in the test on 786-0 renal, 4.22 µM; in the test with SK-OV-3 ovarian, 26 µM. The TGI with HOP-92 NSCLC turned out to be 9.45 µM; in the test with HL-60(TB) leukemia it was 5.96 µM.

As for `Nc1ncc(-c2ccc3ncnc(N4CCc5cc(F)c(Cl)cc54)c3c2)cc1C(F)(F)F`, the GI50 in the test on SN12C renal was 0.754 µM; with HCT-15 colon, 1.57 µM; in the test with OVCAR-5 ovarian it was 1.23 µM; in the test with A549 NSCLC, 1.56 µM; with 786-0 renal, 1.04 µM; in the test with SK-OV-3 ovarian it was 2.15 µM. Moreover, the GI50 in the test on HL-60(TB) leukemia was 0.981 µM. Besides, the TGI is > 100 µM with SN12C renal; > 100 µM in the test on HCT-15 colon; > 100 µM in the test with OVCAR-5 ovarian; > 100 µM with A549 NSCLC; 4.79 µM in the test on 786-0 renal; > 100 µM in the test on SK-OV-3 ovarian. In addition, the TGI in the test with HL-60(TB) leukemia was > 100 µM.

Take `CN(C)C(=S)/N=C(\N)N(C)C`: the TGI in the test with SN12C renal, in the test with HCT-15 colon, in the test with OVCAR-5 ovarian, in the test on A549 NSCLC, in the test on 786-0 renal and with SK-OV-3 ovarian was > 100 µM each time. Moreover, the TGI in the test with HOP-92 NSCLC and with HL-60(TB) leukemia was > 100 µM in each case.

Consider `CCOc1ccc2c(c1)[n+]([O-])c(-c1ccc([N+](=O)[O-])cc1)c(N)[n+]2[O-]`, for which the TGI in the test with SN12C renal, with OVCAR-5 ovarian, with A549 NSCLC, with 786-0 renal, with SK-OV-3 ovarian and in the test with HOP-92 NSCLC was > 100 µM throughout. Further, the TGI with HL-60(TB) leukemia was > 100 µM.

On to `OCC(O)C(OC1OC(CO)C(O)C(O)C1O)c1nn(-c2ccc(Cl)cc2)c2nc3cc(Cl)c(Cl)cc3nc12` (stereo not drawn), for which the TGI in the test on SN12C renal, in the test on HCT-15 colon, in the test with OVCAR-5 ovarian, in the test with 786-0 renal and in the test on SK-OV-3 ovarian was > 100 µM throughout.

Regarding `O=C(CC(=O)c1cccc2ccccc12)C(=O)Nc1nccs1`, the TGI in the test with SN12C renal, in the test with HCT-15 colon, in the test on OVCAR-5 ovarian, with A549 NSCLC, in the test on 786-0 renal and in the test on SK-OV-3 ovarian was > 100 µM in each case. Moreover, the TGI in the test on HOP-92 NSCLC and in the test on HL-60(TB) leukemia was > 100 µM throughout.

Consider `COC(=O)CCC(=O)Nc1cc(C)ccc1C`, for which the TGI in the test with SN12C renal, in the test on A549 NSCLC, in the test with 786-0 renal, in the test on SK-OV-3 ovarian, in the test with HOP-92 NSCLC and with HL-60(TB) leukemia was > 100 µM throughout.

`C=CC(=O)OCCCS(=O)(=O)[O-].C=CC(=O)OCCCS(=O)(=O)[O-].NC1CCCCC1N.[Pt+4]`: the GI50 in the test with SN12C renal, in the test with HCT-15 colon, in the test with OVCAR-5 ovarian, in the test with A549 NSCLC, with 786-0 renal and with SK-OV-3 ovarian was > 25 µM each time. In addition, the GI50 in the test with HL-60(TB) leukemia is > 25 µM. Also, the TGI in the test with SN12C renal, in the test with HCT-15 colon, in the test with OVCAR-5 ovarian, with A549 NSCLC, with 786-0 renal and with SK-OV-3 ovarian was > 25 µM throughout. For the same molecule, the TGI in the test on HL-60(TB) leukemia was > 25 µM.

In the case of `CCOC(=O)C1=C(Nc2cccc3ccccc23)OCC1=O`, the TGI in the test on SN12C renal, with OVCAR-5 ovarian, in the test on A549 NSCLC, in the test with 786-0 renal, in the test with SK-OV-3 ovarian and in the test with HOP-92 NSCLC was > 100 µM throughout.

`C#CCOCn1cnc2c(N)ncnc21`: the TGI with SN12C renal, in the test with OVCAR-5 ovarian, in the test on A549 NSCLC, in the test on 786-0 renal, with SK-OV-3 ovarian and in the test with HOP-92 NSCLC was > 100 µM throughout.

In the case of `Nc1ncnc2c1N=CN(Oc1ccccc1)N2`, the TGI in the test on SN12C renal was 43.7 µM; in the test with HCT-15 colon it was > 100 µM; in the test with OVCAR-5 ovarian it was > 100 µM; with A549 NSCLC, > 100 µM; in the test on 786-0 renal, > 100 µM; with SK-OV-3 ovarian it was > 100 µM. For the same molecule, the TGI in the test with HOP-92 NSCLC is > 100 µM.

Consider `CC(C)CCCC(C)[C@H]1CCC2C3CC=C4C[C@@H](OC(=O)CC(CC(=O)[O-])C(=O)[O-])CC[C@]4(C)C3CC[C@@]21C.N.N.[Pt+4]` (stereo partly drawn), for which the GI50 in the test with SN12C renal, in the test with HCT-15 colon, with A549 NSCLC, with 786-0 renal, with HOP-92 NSCLC and in the test on HL-60(TB) leukemia was > 100 µM each time. In addition, the TGI with SN12C renal, with HCT-15 colon, in the test with A549 NSCLC, in the test on 786-0 renal, in the test with HOP-92 NSCLC and in the test on HL-60(TB) leukemia was > 100 µM throughout.

Turning to `CC(C)(C)c1cc(C#N)c2c(c1)C(=O)OC2(c1ccccc1)c1ccccc1C#N` (stereo not drawn), the TGI in the test on SN12C renal, in the test with HCT-15 colon, with OVCAR-5 ovarian, with A549 NSCLC, in the test on 786-0 renal and in the test on SK-OV-3 ovarian was > 100 µM in each case. Moreover, the TGI in the test on HL-60(TB) leukemia is > 100 µM.

Regarding `CC1=C(C(=O)NCc2ccccc2)C(c2ccc(N(C)C)cc2)C(C(=O)NCc2ccccc2)=C(C)N1`, the TGI in the test with SN12C renal, in the test with OVCAR-5 ovarian, with A549 NSCLC, in the test with 786-0 renal, with SK-OV-3 ovarian and in the test on HOP-92 NSCLC was > 100 µM each time. For the same molecule, in the test with HL-60(TB) leukemia, the TGI is > 100 µM.

For the molecule `Cc1cccc(/C=N/N=C(\N)NO)n1`, the TGI is > 100 µM with SN12C renal; > 100 µM in the test with A549 NSCLC; > 100 µM in the test with 786-0 renal; > 100 µM with SK-OV-3 ovarian; 98.3 µM with HOP-92 NSCLC; > 100 µM in the test on HL-60(TB) leukemia.

As to `CC/C(=N/O)C(C)C(=O)CCC(=O)Nc1ccc(Cl)cc1` (stereo not drawn), the TGI in the test with SN12C renal, in the test with HCT-15 colon, with OVCAR-5 ovarian, in the test with A549 NSCLC, in the test on 786-0 renal and in the test on SK-OV-3 ovarian was > 100 µM in each case. The TGI with HL-60(TB) leukemia was > 100 µM.

The record behind these values is PubChem BioAssay (NCI).
